Data reported in patent publication US20130178488A1, “TRICYCLIC COMPOUNDS, PREPARATION METHODS, AND THEIR USES” (priority 2011, published 2013).

The molecules below were run against T1, recombinant human Lp-PLA2 (Homo sapiens, UniProt Q13093) (assay: Recombinant human Lp-PLA2 assay (rhLp-PLA2, PED6 assay)). Settings: one experiment or average of multiple experiments; upper limit of the PED6 assay is pIC50 9.3.
T1 sequence (Q13093 22-441): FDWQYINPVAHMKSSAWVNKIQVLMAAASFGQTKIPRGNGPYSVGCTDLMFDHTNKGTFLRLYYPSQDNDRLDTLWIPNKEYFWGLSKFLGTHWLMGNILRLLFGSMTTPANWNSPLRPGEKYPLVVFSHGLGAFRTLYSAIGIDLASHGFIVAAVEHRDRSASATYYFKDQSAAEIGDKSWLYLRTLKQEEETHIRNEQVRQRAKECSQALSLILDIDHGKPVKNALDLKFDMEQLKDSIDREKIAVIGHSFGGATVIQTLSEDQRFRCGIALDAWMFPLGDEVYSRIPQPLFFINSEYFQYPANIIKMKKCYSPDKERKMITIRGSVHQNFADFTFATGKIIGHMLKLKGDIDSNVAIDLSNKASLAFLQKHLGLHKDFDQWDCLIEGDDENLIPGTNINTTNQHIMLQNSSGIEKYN
Format: biochemical
From the text: (1) Recombinant Human Lp-PLA2 Assay (rhLp-PLA2) (Also Referred to as “PED6” Assay)
N-((6-(2,4-dinitrophenyl)amino)-hexanoyl)-2-(4,4-difluoro-5,7-dimethyl-4-bora-3a,4a-diaza-s-indacene-3-pentanoyl)-1-hexadecanoyl-sn-glycero-3-phosphoethanolamine, triethylammonium salt (PED6) is a commercially available fluorescently-labeled phospholipid, which is commercially available from Molecular Probes. There is a quenching para-nitro phenyl (PNP) group in the sn3 position and a Bodipy fluorescein (FL) group in the sn2 position. Upon cleavage with LpPLA2, the Bodipy Fl group is liberated and then may result in an increase in fluorescence. Inhibitors of LpPLA2 therefore prevent this cleavage and no fluorescent increase is observed.
The PED6 assay is run as an unquenched 10 μL assay. Compounds source plate is prepared by making 1:3 (by volume) serial dilution of the compounds into pure DMSO on 384-well microplate. Then 0.01 μL of compounds on compound source plate are transferred into 384 well Greiner 784076 (black) plates by ECHO liquid dispenser. 5 μL of recombinant human Lp-PLA2 enzyme (2 nM rhLp-PLA2 in assay buffer of 50 mM HEPES, pH7.4, 150 mM NaCl, 1 mM CHAPS) is added to each well of the plate with compounds. Plates are centrifuged for 10 sec at 500 rpm. After 30 minutes preincubation, 5 μL of substrate (4 μM PED6 [from 5 mM DMSO stock] in assay buffer of 50 mM HEPES, pH7.4, 150 mM NaCl, 1 mM CHAPS) is added to 384 well Greiner 784076 (black) plates. Plates are centrifuged for 10 sec at 500 rpm. Plate is covered to protect from light and incubated for 20 min at room temperature. Plates are read for Fluorescence intensity at ex: 480/em: 540 using ViewLux microplate imager. PIC50 data, curve and QC analysis is conducted by using XL fit module in Excel.

| Compound | IC50 |
| --- | --- |
| N#Cc1cc(COc2cc3n(c(=O)n2)CCc2cc(F)ccc2-3)ccc1Oc1cccc(C(F)(F)F)c1 [Example 89, 5-(((9-fluoro-4-oxo-6,7-dihydro-4H-pyrimido[6,1-a]isoquinolin-2-yl)oxy)methyl)-2-(3-(trifluoromethyl)phenoxy)benzonitrile] | 3.16 nM |
| O=c1nc(OCc2ccc(Oc3cnc(C(F)(F)F)nc3)c(F)c2)cc2n1CCc1cc(F)ccc1-2 [Example 98, 9-fluoro-2-((3-fluoro-4-((2-(trifluoromethyl)pyrimidin-5-yl)oxy)benzyl)oxy)-6,7-dihydro-4H-pyrimido[6,1-a]isoquinolin-4-one] | ≤ 0.501 nM |
| O=c1nc(OCc2cc(F)c(Oc3ccc(C(F)(F)F)nc3)c(F)c2)cc2n1CCc1ccccc1-2 [Example 94, 2-((3,5-difluoro-4-((6-(trifluoromethyl)pyridin-3-yl)oxy)benzyl)oxy)-6,7-dihydro-4H-pyrimido[6,1-a]isoquinolin-4-one] | 1 nM |
| COc1ccc2c(c1)CCn1c-2cc(OCc2ccc(Oc3ccc(C(F)(F)F)nc3)c(F)c2)nc1=O [Example E58, 2-((3-fluoro-4-((6-(trifluoromethyl)pyridin-3-yl)oxy)benzyl)oxy)-9-methoxy-6,7-dihydro-4H-pyrimido[6,1-a]isoquinolin-4-one] | 1 nM |
| N#Cc1cc(COc2cc3n(c(=O)n2)CCc2cc(F)ccc2-3)ccc1Oc1ccc(C(F)(F)F)cn1 [Example 93, 5-(((9-fluoro-4-oxo-6,7-dihydro-4H-pyrimido[6,1-a]isoquinolin-2-yl)oxy)methyl)-2-((5-(trifluoromethyl)pyridin-2-yl)oxy)benzonitrile] | 1 nM |
| COc1ccc2c(c1)CCn1c-2cc(OCc2ccc(Oc3ccc(C(F)(F)F)nc3)c(C#N)c2)nc1=O [Example E36, 5-({[9-(Methyloxy)-4-oxo-6,7-dihydro-4H-pyrimido[6,1-a]isoquinolin-2-yl]oxy}methyl)-2-{[6-(trifluoromethyl)-3-pyridinyl]oxy}benzonitrile] | 1 nM |
| N#Cc1cc(COc2cc3n(c(=O)n2)CCc2cc(F)ccc2-3)ccc1Oc1ccc(Cl)c(C(F)(F)F)c1 [Example 92, 2-(4-chloro-3-(trifluoromethyl)phenoxy)-5-(((9-fluoro-4-oxo-6,7-dihydro-4H-pyrimido[6,1-a]isoquinolin-2-yl)oxy)methyl)benzonitrile] | 0.794 nM |
| COc1ccc2c(c1)CCn1c-2cc(OCc2ccc(Oc3ccc(C(F)(F)F)cn3)c(C#N)c2)nc1=O [Example E22, 5-(((9-Methoxy-4-oxo-6,7-dihydro-4H-pyrimido[6,1-a]isoquinolin-2-yl)oxy)methyl)-2-((5-(trifluoromethyl)pyridin-2-yl)oxy)benzonitrile] | 0.631 nM |
| N#Cc1cc(COc2cc3n(c(=O)n2)CCc2ccccc2-3)ccc1Oc1ccc(Cl)c(C(F)(F)F)c1 [Example 88, 2-(4-chloro-3-(trifluoromethyl)phenoxy)-5-(((4-oxo-6,7-dihydro-4H-pyrimido[6,1-a]isoquinolin-2-yl)oxy)methyl)benzonitrile] | 0.794 nM |
| COc1ccc2c(c1)CCn1c-2cc(Oc2ccc(Oc3cccc(C(F)(F)F)c3)c(C#N)c2)nc1=O [Example E1, 5-((9-Methoxy-4-oxo-6,7-dihydro-4H-pyrimido[6,1-a]isoquinolin-2-yl)oxy)-2-(3-(trifluoromethyl)phenoxy)benzonitrile] | ≤ 0.501 nM |
| N#Cc1cc(COc2cc3n(c(=O)n2)CCc2ccccc2-3)ccc1Oc1cccc(C(F)(F)F)n1 [Example 96, 5-(((4-oxo-6,7-dihydro-4H-pyrimido[6,1-a]isoquinolin-2-yl)oxy)methyl)-2-((6-(trifluoro-methyl)pyridin-2-yl)oxy)benzonitrile] | 0.794 nM |
| N#Cc1cc(COc2cc3n(c(=O)n2)CCc2ccccc2-3)ccc1Oc1ccc(C(F)(F)F)nc1 [Example 91, 5-(((4-oxo-6,7-dihydro-4H-pyrimido[6,1-a]isoquinolin-2-yl)oxy)methyl)-2-((6-(trifluoro-methyl)pyridin-3-yl)oxy)benzonitrile] | 1 nM |
